Like-named read-outs stand apart in the source and are kept apart here.
Assays:
Hsp90 = Hsp90 (Homo sapiens, UniProt P07900); assay: Hsp90 binding (filter binding assay)
SKBr3 cells = assay: Cytotoxicity against SKBr3 cells (CellTiter-Glo, 72 h); conditions: Homo sapiens, SK-BR-3, 72 h, read-out: Cytotoxicity against SKBr3 Cells (IC50, nM)
Description: Cytotoxicity was determined with SKBr3 cells (ATCC HTB-30), a breast cancer cell line. […] Cells were plated into 96-well microtiter back plates at 4,000 cells per 50 μL per well, overnight. Serial 10× dilutions of test compound (10 μM to 0.1 μM) in cell culture media were prepared with a Biomek 2000 apparatus, using the protocols of deeper-1000 μL, media and deeper-1000 μL-dilution. 50 μL of each dilution was added to wells containing cells. Each compound or control (medium only) was tested in duplicate. For each assay, the wells contained a final volume of 100 μL (50 μL of cells and 50 μL of compound dilution). After incubating for 72 h, the plates were let stand at room temperature for 30 min. CellTiter-Glo Luminescent Reagent (Promega #G7573) (100 μL) was added to each well. The well contents were mixed for 5 min and the plates were kept at room temperature for another 30 min. Luminescence was recorded using a Wallac VICTOR^2 Multilabel Counter (PerkinElmer) and IC50 values were determined using Kaleidagraph software (Synergy Software).

HL-60/MX2 = assay: Cytotoxicity, HL-60/MX2; conditions: Homo sapiens, HL60/MX2, read-out: Compound Cytotoxicity (IC50, nM)
SKOV-3 = assay: Cytotoxicity, SKOV-3; conditions: Homo sapiens, SK-OV-3, read-out: Compound Cytotoxicity (IC50, nM)
CCRF-CEM/VBL = assay: Cytotoxicity, CCRF-CEM/VBL; conditions: Homo sapiens, read-out: Compound Cytotoxicity (IC50, nM)
CCRF-CEM/taxol = assay: Cytotoxicity, CCRF-CEM/taxol; conditions: Homo sapiens, read-out: Compound Cytotoxicity (IC50, nM)
MCF-7 = assay: Cytotoxicity, MCF-7; conditions: Homo sapiens, MCF7, read-out: Compound Cytotoxicity (IC50, nM)
A-549 = assay: Cytotoxicity, A-549; conditions: Homo sapiens, A549, read-out: Compound Cytotoxicity (IC50, nM)
CCRF-CEM/VP-16 = assay: Cytotoxicity, CCRF-CEM/VP-16; conditions: Homo sapiens, read-out: Compound Cytotoxicity (IC50, nM)
CCRF-CEM = assay: Cytotoxicity, CCRF-CEM; conditions: Homo sapiens, read-out: Compound Cytotoxicity (IC50, nM)
[1] = filter binding assay, read-out: Hsp90 Binding (Kd)

Compound	Kd (Hsp90)	IC50 (SKBr3 cells)	IC50 (HL-60/MX2)	IC50 (SKOV-3)	IC50 (CCRF-CEM/VBL)	IC50 (CCRF-CEM/taxol)	IC50 (MCF-7)	IC50 (A-549)	IC50 (CCRF-CEM/VP-16)	Kd (Hsp90; [1])	IC50 (CCRF-CEM)
CO[C@H]1[C@@H](OC)C[C@H](C)CC2=C(NCCN3CC3)C(=O)C=C(NC(=O)/C(C)=C/C=C\[C@H](OC)[C@@H](OC(N)=O)/C(C)=C/[C@@H]1C)C2=O [Compound I-d, 11-O-methyl-17-(2-(1-aziridinyl)ethyl)amino-17-demethoxygelda-namycin]	2100 nM	36 nM	–	–	–	–	–	–	–	–	–
CO[C@H]1[C@@H](OC)C[C@H](C)CC2=C(N)C(=O)C=C(NC(=O)/C(C)=C/C=C\[C@H](OC)[C@@H](OC(N)=O)/C(C)=C/[C@@H]1C)C2=O [Compound I-f]	–	84 nM	930 nM	200 nM	2500 nM	850 nM	350 nM	37 nM	530 nM	320 nM	250 nM
CO[C@H]1[C@@H](OC)C[C@H](C)CC2=C(NCCN3CCC3)C(=O)C=C(NC(=O)/C(C)=C/C=C\[C@H](OC)[C@@H](OC(N)=O)/C(C)=C/[C@@H]1C)C2=O [Compound I-i, 11-O-methyl-17-(2-(1-azetidinyl)ethyl)amino 17-demethoxy-geldanamycin]	–	130 nM	110 nM	65 nM	2500 nM	510 nM	51 nM	26 nM	140 nM	960 nM	85 nM
CO[C@H]1[C@@H](OC)C[C@H](C)CC2=C(N3CCC3)C(=O)C=C(NC(=O)/C(C)=C/C=C\[C@H](OC)[C@@H](OC(N)=O)/C(C)=C/[C@@H]1C)C2=O [Compound I-a, 11-O-methyl-17-(1-azetidinyl)-17-demethoxygeldanamycin]	4000 nM	24 nM	600 nM	110 nM	2500 nM	2500 nM	63 nM	29 nM	1400 nM	–	420 nM
CO[C@H]1[C@@H](OC)C[C@H](C)CC2=C(NCCF)C(=O)C=C(NC(=O)/C(C)=C/C=C\[C@H](OC)[C@@H](OC(N)=O)/C(C)=C/[C@@H]1C)C2=O [Compound I-c, 11-O-methyl-17-(2-fluoroethyl)amino-17-demethoxygeldana-mycin]	2300 nM	250 nM	440 nM	460 nM	2500 nM	2700 nM	58 nM	67 nM	2500 nM	–	960 nM
CO[C@H]1[C@@H](OC)C[C@H](C)CC2=C(NCCN3CCCC3)C(=O)C=C(NC(=O)/C(C)=C/C=C\[C@H](OC)[C@@H](OC(N)=O)/C(C)=C/[C@@H]1C)C2=O [Compound I-j, 11-O-methyl-17-(2-(1-pyrrolidinyl)ethyl)amino-17-demethoxygeldanamycin]	–	160 nM	98 nM	69 nM	2500 nM	520 nM	76 nM	62 nM	170 nM	960 nM	160 nM
CO[C@H]1[C@@H](OC)C[C@H](C)CC2=C(NCCN(C)C)C(=O)C=C(NC(=O)/C(C)=C/C=C\[C@H](OC)[C@@H](OC(N)=O)/C(C)=C/[C@@H]1C)C2=O [Compound I-b, 11-O-methyl-17-(2-dimethylaminoethyl)amino-17-demethoxy-geldanamycin]	–	12 nM	62 nM	43 nM	960 nM	390 nM	50 nM	23 nM	65 nM	800 nM	58 nM
COC1=C2C[C@@H](C)C[C@H](OC)[C@H](OC)[C@@H](C)/C=C(\C)[C@H](OC(N)=O)[C@@H](OC)/C=C\C=C(/C)C(=O)NC(=CC1=O)C2=O [Compound I-e, 11-O-methyl-geldanamycin]	–	9.1 nM	–	–	–	–	–	–	–	490 nM	–
COC1=C2C[C@@H](C)C[C@H](OC)[C@H](O)[C@@H](C)/C=C(\C)[C@H](OC(N)=O)[C@@H](OC)/C=C\C=C(/C)C(=O)NC(=CC1=O)C2=O [Geldanamycin]	–	23 nM	–	–	–	–	–	–	–	–	–
CO[C@H]1[C@@H](OC)C[C@H](C)CC2=C(NCCc3c[nH]cn3)C(=O)C=C(NC(=O)/C(C)=C/C=C\[C@H](OC)[C@@H](OC(N)=O)/C(C)=C/[C@@H]1C)C2=O [Compound I-h, 11-O-methyl-17-(2-(4-imidazolyl)ethyl)amino-17-demethoxy-geldanamycin]	–	60 nM	2500 nM	320 nM	> 5000 nM	3000 nM	160 nM	420 nM	2500 nM	2000 nM	510 nM
C=CCNC1=C2C[C@@H](C)C[C@H](OC)[C@H](OC)[C@@H](C)/C=C(\C)[C@H](OC(N)=O)[C@@H](OC)/C=C\C=C(/C)C(=O)NC(=CC1=O)C2=O [Compound I-g, 11-O-methyl-17-allylamino-17-demethoxygeldanamycin]	–	280 nM	3000 nM	1300 nM	> 5000 nM	3500 nM	760 nM	360 nM	4000 nM	2800 nM	2500 nM

— US6855705B1, “11-O-methylgeldanamycin compounds” (Kosan Biosciences, Inc., priority 2003, dated 2005)
